ChEMBL document CHEMBL2007661, “Compounds: GSK PKIS; Assays: UNC Frye lab” (2012)
“And” between values parts separate entries of the source, which are not always exact repeats. Equal values may be shown once.

Columns and labels:
[1] = target: T1, Tyrosine-protein kinase Mer (Homo sapiens) (UniProt Q12866); conditions: at 10 µM
T1 sequence (whole entry): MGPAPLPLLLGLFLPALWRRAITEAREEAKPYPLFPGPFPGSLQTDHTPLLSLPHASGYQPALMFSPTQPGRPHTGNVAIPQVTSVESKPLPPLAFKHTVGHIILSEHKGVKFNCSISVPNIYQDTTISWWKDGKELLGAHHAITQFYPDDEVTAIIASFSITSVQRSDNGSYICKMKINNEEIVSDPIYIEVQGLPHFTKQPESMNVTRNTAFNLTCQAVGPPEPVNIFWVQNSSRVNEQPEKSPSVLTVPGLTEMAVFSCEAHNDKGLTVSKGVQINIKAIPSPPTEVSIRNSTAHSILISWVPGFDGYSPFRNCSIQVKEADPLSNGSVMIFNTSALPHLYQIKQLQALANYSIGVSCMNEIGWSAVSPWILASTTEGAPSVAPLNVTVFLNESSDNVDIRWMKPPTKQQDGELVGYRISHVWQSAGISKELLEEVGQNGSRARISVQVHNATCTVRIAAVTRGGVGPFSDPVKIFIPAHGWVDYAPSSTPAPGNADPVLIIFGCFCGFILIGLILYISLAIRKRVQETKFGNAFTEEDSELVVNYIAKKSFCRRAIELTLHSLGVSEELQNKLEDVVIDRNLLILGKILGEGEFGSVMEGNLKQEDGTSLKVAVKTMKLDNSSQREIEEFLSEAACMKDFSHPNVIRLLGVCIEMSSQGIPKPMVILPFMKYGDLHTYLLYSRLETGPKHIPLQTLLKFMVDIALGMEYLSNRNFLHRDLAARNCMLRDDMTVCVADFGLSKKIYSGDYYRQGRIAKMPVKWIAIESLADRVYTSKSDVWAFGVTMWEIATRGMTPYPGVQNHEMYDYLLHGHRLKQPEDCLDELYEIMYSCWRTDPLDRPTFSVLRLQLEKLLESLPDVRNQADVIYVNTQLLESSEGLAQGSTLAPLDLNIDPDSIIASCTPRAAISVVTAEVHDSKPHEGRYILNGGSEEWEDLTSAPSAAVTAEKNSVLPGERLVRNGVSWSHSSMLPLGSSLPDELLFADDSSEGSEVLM

[2] = target: T2, Serine/threonine-protein kinase TBK1 (Homo sapiens) (UniProt Q9UHD2); conditions: at 1 µM
T2 sequence (whole entry): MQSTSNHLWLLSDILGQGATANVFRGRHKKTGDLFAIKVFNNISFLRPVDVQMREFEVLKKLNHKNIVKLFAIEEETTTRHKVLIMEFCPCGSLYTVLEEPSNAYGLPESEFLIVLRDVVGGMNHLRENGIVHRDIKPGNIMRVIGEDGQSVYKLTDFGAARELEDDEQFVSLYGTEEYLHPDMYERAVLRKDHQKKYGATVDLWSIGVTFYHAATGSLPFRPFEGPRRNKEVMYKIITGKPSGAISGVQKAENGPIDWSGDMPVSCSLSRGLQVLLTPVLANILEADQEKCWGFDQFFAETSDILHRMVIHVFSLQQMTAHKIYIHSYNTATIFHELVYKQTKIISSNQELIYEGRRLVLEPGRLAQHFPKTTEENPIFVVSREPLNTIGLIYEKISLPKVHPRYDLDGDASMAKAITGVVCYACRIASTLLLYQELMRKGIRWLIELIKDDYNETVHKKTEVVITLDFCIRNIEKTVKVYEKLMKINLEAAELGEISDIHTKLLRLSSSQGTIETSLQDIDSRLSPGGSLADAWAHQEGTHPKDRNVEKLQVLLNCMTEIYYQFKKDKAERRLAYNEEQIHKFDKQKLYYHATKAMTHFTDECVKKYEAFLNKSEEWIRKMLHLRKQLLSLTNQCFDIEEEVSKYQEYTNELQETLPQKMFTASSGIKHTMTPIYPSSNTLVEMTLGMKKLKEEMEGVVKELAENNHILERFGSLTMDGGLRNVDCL

[3] = target: T3, Inhibitor of nuclear factor kappa-B kinase subunit alpha (Homo sapiens) (UniProt O15111); conditions: at 1 µM
T3 sequence (whole entry): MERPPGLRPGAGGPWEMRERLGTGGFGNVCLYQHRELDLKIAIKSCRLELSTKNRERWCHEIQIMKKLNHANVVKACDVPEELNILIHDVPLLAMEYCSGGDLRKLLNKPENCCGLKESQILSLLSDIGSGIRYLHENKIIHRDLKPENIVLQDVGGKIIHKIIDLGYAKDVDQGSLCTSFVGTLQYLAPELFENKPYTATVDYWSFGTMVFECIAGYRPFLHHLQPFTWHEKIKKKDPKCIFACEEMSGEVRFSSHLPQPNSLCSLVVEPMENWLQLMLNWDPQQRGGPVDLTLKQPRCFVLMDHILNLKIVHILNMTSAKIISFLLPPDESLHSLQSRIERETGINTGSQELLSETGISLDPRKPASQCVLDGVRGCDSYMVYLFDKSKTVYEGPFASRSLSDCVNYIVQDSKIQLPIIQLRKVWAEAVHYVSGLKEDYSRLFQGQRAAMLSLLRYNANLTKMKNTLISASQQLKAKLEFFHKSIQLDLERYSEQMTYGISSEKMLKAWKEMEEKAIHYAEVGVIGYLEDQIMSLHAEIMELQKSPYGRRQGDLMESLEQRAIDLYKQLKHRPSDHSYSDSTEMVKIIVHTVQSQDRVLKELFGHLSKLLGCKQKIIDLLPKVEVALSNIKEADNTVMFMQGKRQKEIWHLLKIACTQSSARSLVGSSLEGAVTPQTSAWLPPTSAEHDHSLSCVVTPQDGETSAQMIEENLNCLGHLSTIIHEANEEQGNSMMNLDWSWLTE

inhibition [1] [%]	inhibition [2]	inhibition [3]	Structure (SMILES)
25	1% and 2%	13%	COc1cccc(-n2ncc3c(N/N=C/c4ccc(C)cc4)ncnc32)c1
-4	1% and -1%	-4%	CC1=C(C(=O)Nc2ccc3[nH]ncc3c2)C(c2ccc(F)cc2)N=C(c2ccc(C(F)(F)F)nc2)N1 (centres undefined)
5	20% and 30%	3% and 2%	COc1cccc(-n2ncc3c(N/N=C/c4ccc(S(C)(=O)=O)cc4)ncnc32)c1
